Reference: patent publication US20230235374A1, “High Throughput Assays for Detecting Translation Readthrough Inducers” (The Trustees of the University of Pennsylvania, priority 2021, published 2023)

Test system: Stop-POST5 complex (RFC-dependent termination)
Assay: smTIRF assay of RFC-dependent peptide and tRNA release
Assay type: biochemical, shrimp (Artemia salina)
Method: Immobilization of ribosome Stop-POST 5 complexes. PEGylated flow chambers were incubated in 0.5 mg/ml streptavidin for 5 mins and washed with Buffer 4. Biotinylated Stop-POST5 containing FK(atto647)VRQ-tRNA^Gln (Cy3) in the P-site, was formed at room temperature by incubating Stop-POST4, eEF1A, GTP, and Gln-(Cy3)tRNA^Gln for 5 mins and then injected into the streptavidin-coated slide chamber. After a 5 min incubation, excess unbound ribosome was flowed out. Then eRF1/eRF3±TRIDs was injected dynamically at 3 sec while recording. The injection dead time was subtracted for each particle.
Single-molecule fluorescence imaging. All sm-TIRF studies were carried out at 24° C. All dilutions, complex formation, and single-molecule imaging were carried out in Buffer 4 with an added enzymatic oxygen scavenging system of 2 mM protocatechuic acid (PCA), 50 nM protocatechunate 3,4 dioxygenase (PCD, Sigma Aldrich), 1 mM cyclooctatetraene (COT, Sigma Aldrich), 1 mM 4-nitrobenzyl alcohol (NBA, Sigma Aldrich), and 1.5 mM 6-hydroxy-2,5,7,8-tetramethyl-chromane-2-carboxylic acid (Trolox, Sigma-Aldrich) (Flis et al., Cell reports, 25(10), 2676-2688 (2018).
Image stacks were recorded at 100 ms frame rate on a custom-built objective-type total internal reflection fluorescence (TIRF) microscope based on a commercial inverted microscope (Eclipse Ti-E, Nikon) and capable of performing alternating-laser excitation (ALEX) between 532 nm and 640 nm laser beams using an acousto-optic tunable filter (AOTF, Chen et al., 2011). For the time-lapse experiment, timing of the movies, programmed into NIS-Elements (Nikon) microscope software, were recorded by illuminating the sample for 50-20 frames at 10 frames per s with 15 s or […] intervening dark intervals. Video recording was started and then eRF1/eRF3±TRIDs was injected from a triggered syringe pump at 3 sec while recording. The injection dead time was subtracted for each particle. Triggering of the shutters, AOTF, and pump was synchronized using LabView scripts driven from the camera exposure signal.
Data analysis. Collected movies were analyzed by a custom-made software program developed as an ImageJ plugin (Chen et al., Mol. Cell, 42, 367-377 (2011)), and further analyzed using Python. Distributions of peptide and tRNA dissociation times were fit to eq (5), using maximum likelihood estimation (Bevington and Robinson. Data Reduction and Error Analysis for the Physical Sciences. New York: McGraw-Hill, (2002); Woody et al., Biophys. J. 111, 273-282 (2016)), where P is the probability density.
smTIRF results using Atto(pep)-Cy-Stop-POST5 attached to surface-immobilized ribosomes. Although the distance between the two fluorophores is not close enough to produce FRET, fluorescent pairs could be identified by co-localization on the slide under alternating 532 nm and 640 nm total internal reflection fluorescence (TIRF) illumination. This permits near-simultaneous monitoring of the dynamics of peptide and P-site tRNA release from the Stop-POST5 complex following RFC binding.
To reduce photobleaching of each fluorophore, time-lapse movies were recorded with bursts of 20 or 50 frames at 100 ms frame intervals interleaved by 20 s intervals with the lasers shuttered. Total recording time for each trial was 20 min.
FIG. 8A and FIG. 8C show typical frame by frame recordings indicating a loss of signal for both labeled peptide and labeled tRNA after the addition of the RFC to Atto(pep)-Cy(tRNA)-Stop-POST5. Either peptide (a) or tRNA (b) can dissociate first, in approximately equal proportions. Photobleaching of Cy3-labeled tRNA and Atto647-labeled peptide in the absence of eRF1/eRF3 was much slower (FIG. 8E and FIG. 8F). Under the time lapse illumination employed, mean lifetimes for Atto647-peptide and Cy3-tRNA at 0.32 μM eRF1 and 2 μM eRF3 were each 2.45 min. […]

[1] = 0.081 μM RFC, 1000 μM ataluren added 4-25 s later, 24° C.

With O=C(O)c1cccc(-c2noc(-c3ccccc3F)n2)c1 [Ataluren] the “mode of inhibition of RFC” value was “apparent competitive inhibitor”, the “effect on CC value of peptide and tRNA lifetimes” value (0.032 μM RFC and 1 mM ataluren, FIG. 10C) was “did not change the CC value” and the “rate constant for elimination of ataluren's inhibitory effect after RFC addition, peptide” value [1] was 9.6 ± 2.6 min⁻¹. For the same compound, the “rate constant for elimination of ataluren's inhibitory effect after RFC addition, tRNA” value [1] was 10.8 ± 3.6 min⁻¹, the “effect on Vmax values at high RFC concentration” value (200, 500, 1000 μM ataluren) was “little affected” and the “KA, inhibition of pentapeptide release rate constants” value (measured by both smTIRF and fluorescence anisotropy, eRF1 32 nM, FIG. 9H) was 250 ± 20 µM. The “KA, inhibition of tRNA release” value (smTIRF) was 180 ± 10 µM and the “effects on the rates of peptide and tRNA release” value (steps after tRNA-peptide bond cleavage) was “no direct effects”.
